Literature values in patent US20100284993A1, “Enhancing the Efficacy of Anti-Infective Therapeutics” (priority 2007, published 2010).
Blank lines part the entries; values can stand above or below the molecule they belong to.

How the values were obtained:
[1] = in vivo
[2] = biological target: peptidyl prolyl isomerases of the protozoan parasite Trypanosoma cruzi (Trypanosoma cruzi, UniProt Q09734)
[3] = set-up: unit not given here; details: in vivo

peptidyl prolyl isomerases of the protozoan parasite Trypanosoma cruzi, sequence (Q09734 30-196): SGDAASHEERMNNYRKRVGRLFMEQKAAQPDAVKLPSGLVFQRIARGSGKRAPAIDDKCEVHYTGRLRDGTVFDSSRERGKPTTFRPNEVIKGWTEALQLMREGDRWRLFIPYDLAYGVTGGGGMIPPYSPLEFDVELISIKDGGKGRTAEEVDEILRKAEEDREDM

distribution into protected cellular compartments in the blood [1]: 72-98%
SMILES: C=CC[C@@H]1/C=C(\C)C[C@H](C)C[C@H](OC)[C@H]2O[C@@](O)(C(=O)C(=O)N3CCCC[C@H]3C(=O)O[C@H](/C(C)=C/[C@@H]3CC[C@@H](O)[C@H](OC)C3)[C@H](C)[C@@H](O)CC1=O)[C@H](C)C[C@@H]2OC [FK506]

SMILES: CC[C@@H]1/C=C(\C)[C@@H](O)[C@H](C)C[C@H](OC)[C@H]2O[C@@](O)(C(=O)C(=O)N3CCCC[C@H]3C(=O)O[C@H](/C(C)=C/[C@@H]3CC[C@@H](O)[C@H](OC)C3)[C@H](C)[C@@H](O)CC1=O)[C@H](C)C[C@@H]2OC [L-685,818]
binding preference for T. cruzi peptidyl prolyl isomerases over human FKBP [2]: preferentially binds

half life [3]: four
SMILES: C[C@@H](O)[C@H]1C(=O)N2C(C(=O)O)=C(S[C@@H]3CN[C@H](C(=O)Nc4cccc(C(=O)O)c4)C3)[C@H](C)[C@H]12 [ertapenem]
effectiveness against Pseudomonas aeruginosa (Pseudomonas aeruginosa): not effective

elimination half life [3]: one
SMILES: C[C@@H](O)[C@H]1C(=O)N2C(C(=O)O)=C(S[C@@H]3CN[C@H](C(=O)N(C)C)C3)[C@H](C)[C@H]12 [meropenem]
